Results from patent US20100160228A1, “METHOD FOR INHIBITING OR STIMULATING ANGIOGENESIS IN AN INDIVIDUAL” (VALTION TEKNILLINEN TUTKIMUSKESKUS, priority 2007, published 2010).

Experiments:
Type in all cases: cell-based, human
HUVEC [1] = assay: Time-lapse chemokinesis assay; settings: HUVEC on gelatin, 4 hours time-lapse, FIG. 5B and FIG. 9
Description: (§1) FIG. 5. Controlled TCPTP activation inhibits VEGF-driven capillary formation, chemokinesis and chemotaxis. (A) HUVEC were cultured in fibrin gels and treated with or without VEGF and TAT peptides (200 nM). After 24 h the formation of capillary tubes was semiquantitatively scored. (B) HUVEC were plated on gelatin in the presence of the peptides (200 nM) or left untreated for 1 h. The cells were stimulated as indicated and migration of individual cells was tracked using time-lapse microscopy. Cumulative migration distance was plotted for randomly picked individual cells. (C) HUVEC were treated with 200 nM peptides and the transmigration assay was performed as in FIG. 3D. (D) HUVEC were transfected with siRNA against TCPTP or a control siRNA, and TCPTP expression was analysed with immunofluorescence. Equal exposures of TCPTP (green) and DAPI (blue) stainings are shown. 48 h post-transfection cells were subjected to transmigration assay as in […].
FIG. 9. TCPTP activation by α1-peptide inhibits VEGF induced chemokinesis. HUVEC were plated on gelatin in the presence of the peptides (200 nM) or left untreated for 1 h. The cells were stimulated as indicated and migration of individual cells was tracked using time-lapse microscopy. Representative images of individual cells overlayed with their migration patterns (different colours) at the indicated time points are shown.
Time-lapse chemokinesis assays. HUVEC were plated on gelatin-coated wells and allowed to attach for 1 h in the presence or absence of 200 nM α1TAT or ScrTAT and 20 ng/ml VEGF. Migration of individual cells was recorded at 5 min intervals for 4 h using 20× objective and digital video recording. The migration pathway of at least ten randomly picked cells was tracked using the Metamorph program. The cumulative migration distances were also plotted.

HUVEC [2] = assay: Transwell chemotaxis assay towards VEGF; settings: vector-transfected HUVEC, FIG. 3D
Description: FIG. 3. TCPTP activity controls VEGF-dependent responses in endothelial cells. (A) HUVEC were transfected with the constitutively active TCPTP (TC37) or vector control (pCG), stimulated or not with VEGF, and stained for VEGFR2 (red) and nuclei (blue) after fixation and permeabilization. Arrows indicate VEGFR2 vesicles. (B) HUVEC were treated as in (A) and subjected to trypsin digestion on ice. VEGFR2 protected from trypsin (=internalized pool) was detected by immunoblotting. The intensities of VEGFR2 bands were quantified and are expressed relative to pCG-VEGF control. A representative experiment out of 2 with similar results is shown. (C) HUVEC were transfected with no oligo, siRNA against TCPTP or a control siRNA, and TCPTP expression was measured using immunoblotting. Cells were treated with 80 ng/ml VEGF and proliferation of sparse cells plated on gelatin was assayed after 16 h using BrdU-based assay (mean±SD; n=4-6; *, p<0.05). (D) HUVEC were transfected as in (A) and chemotaxis towards VEGF was measured using a Transwell assay for 4 hours. Cells adhering to the bottom of the filter were fixed and stained with crystal violet. Number of migrated cells was counted (mean±SEM, n=3).
as §1
Chemotaxis assays. HUVEC electroporated with the DNA or siRNA or non-transfected HUVEC were treated with 200 nM α1TAT, ScrTAT or left untreated for 1 h. Transwell filters (8 μm pore size, Costar, Cambridge, Mass.) were coated with gelatin and medium (RPMI, 4 mM L-glutamine, 10% FBS) and VEGF (100 ng/ml) were added to the lower chamber. Cells were harvested from the culture plates, and transferred into the Transwell inserts (4×10^5 cells/well) in RPMI with 0.2% soybean trypsin inhibitor. […] The inserts were fixed in 4% paraformaldehyde, cells stained with 0.5% crystal violet and the number of migrated cells was counted using a microscope.

VEGFR2 = VEGFR2 kinase activity from HUVEC lysates (Kinase-Glo Plus); settings: HUVEC treated with no peptide or with scrambled control TAT peptide, FIG. 4B
Description: (A) Serum-starved subconfluent HUVEC were treated for 1 h with α1 integrin cytoplasmic tail fusion peptide (α1TAT) or TAT-scramble control fusion peptide (ScrTAT) (both at 200 nM) followed by VEGF-induction (100 ng/ml, 15 min) where indicated. Cell lysates were resolved on SDS-PAGE and immunoblotted for phosphorylated VEGFR2 (or tubulin as a control). (B) HUVEC were treated as in (A) and VEGFR2 kinase activity (mean±SD, n=3) was measured from the cell lysates. **, p<0.01. (C) Recombinant, purified TCPTP was incubated with α1 or α2 cytoplasmic tail peptides (L-amino acids) or with α1 and scrambled TAT peptides (D-amino acids) and analyzed for phosphatase activity (mean±SD, n=3).
VEGFR2 kinase activity was studied using Kinase-Glo Plus kinase assay kit according to manufacturer's protocol (Promega) with 25 µM ATP. Briefly, HUVEC plated on gelatin were serum-starved overnight, treated with 400 nM α1TAT or ScrTAT or left untreated and stimulated with 100 ng/ml VEGF for 15 min, when indicated. The cells were lysed to ice-cold lysis buffer (1% NP-40, 20 mM Hepes pH 7.4, 150 mM NaCl, 10% glycerol, 2.5 mM EDTA, complete protease inhibitor (Roche) and phosphatase inhibitor coctails I and II (Sigma)). The lysates were incubated in anti-VEGFR2 or control IgG-coated wells with shaking for 2 h and washed 3 times with lysis buffer and 3 times with cold kinase assay buffer (20 mM Hepes pH 8, 0.1 mM Na3VO4, 10 mM MnCl2, 1 mM DTT). Kinase assay was performed for 10 min at +37° C.

## VEGF
HUVEC [1]
  induction of HUVEC chemokinesis: 99±25%
HUVEC [2]
  stimulation of chemotaxis: > 2 fold
VEGFR2
  increase of VEGFR2 kinase activity upon VEGF-stimulation: about 10 fold
